From patent publication US4666932A, “Formamidine derivatives and pharmaceutical use” (Istituto de Angeli S.p.A., priority 1982, dated 1987)

Tests used:
gastric acid secretion = conditions: prior art statement; cited from earlier work
histamine H2 -receptors [1] = biological target: T1, histamine H2 -receptors (Cavia porcellus, UniProt P47747); experiment: In vitro inhibition of histamine induced tachycardia (positive chronotropic effect), isolated guinea pig atria; type: cell-based; conditions: 32° C., pH 7.4, 30 minutes contact before histamine 10^-6 g.ml^-1
T1 construct: isolated guinea pig atria suspended in an organ bath (50 ml); from tissue; host or cells: isolated guinea pig atria
T1 sequence (P47747 whole entry): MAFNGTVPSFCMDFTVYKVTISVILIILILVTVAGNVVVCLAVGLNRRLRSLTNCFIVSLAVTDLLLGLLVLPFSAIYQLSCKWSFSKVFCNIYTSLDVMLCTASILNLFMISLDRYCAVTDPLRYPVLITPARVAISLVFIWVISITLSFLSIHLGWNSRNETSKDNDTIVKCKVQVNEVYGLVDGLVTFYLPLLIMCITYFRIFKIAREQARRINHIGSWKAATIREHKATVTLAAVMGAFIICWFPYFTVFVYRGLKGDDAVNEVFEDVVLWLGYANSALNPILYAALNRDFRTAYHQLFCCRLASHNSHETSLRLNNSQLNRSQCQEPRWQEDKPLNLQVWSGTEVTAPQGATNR
Procedure: The myocardial preparation, loaded with 1 g isometric tension, was allowed to stabilize 60 minutes, and myocardial contractions were recorded through an isometric lever connected to a strain-gauge coupler and the instantaneous rate was monitored with a cardiotachometer, and a heatwriting pen recorder. After two control responses to histamine (10^-6 g.ml^-1) the test compound was added to the bath at the desired final concentration and left for 30 minutes before the atria were again challenged with histamine. The chronotropic response obtained in the presence of the antagonist was then compared to the control response to histamine, and the percent reduction of the histamine H2 -evoked response was calculated. […] 3, Smooth muscle, Ed. Daniel E. E. Paton, M., Plenum Press, New York, (1975); Ash and Schild, Br. J. Pharmacol. Chemother. 27, 427-439, 1966.

histamine H2 -receptors [2] = biological target: T2, histamine H2 -receptors (Rattus norvegicus, UniProt P25102); experiment: In vivo antisecretory activity in histamine-induced gastric secretion (stomach-perfused rat); conditions: i.v., histamine 1 mg.kg^-1 hr^-1 intravenous, urethane anesthesia, values expressed taking the compound as a base
T2 construct: from tissue; host or cells: stomach of the living, anaesthetised rat (in vivo)
T2 sequence (P25102 whole entry, the tested form may be a part): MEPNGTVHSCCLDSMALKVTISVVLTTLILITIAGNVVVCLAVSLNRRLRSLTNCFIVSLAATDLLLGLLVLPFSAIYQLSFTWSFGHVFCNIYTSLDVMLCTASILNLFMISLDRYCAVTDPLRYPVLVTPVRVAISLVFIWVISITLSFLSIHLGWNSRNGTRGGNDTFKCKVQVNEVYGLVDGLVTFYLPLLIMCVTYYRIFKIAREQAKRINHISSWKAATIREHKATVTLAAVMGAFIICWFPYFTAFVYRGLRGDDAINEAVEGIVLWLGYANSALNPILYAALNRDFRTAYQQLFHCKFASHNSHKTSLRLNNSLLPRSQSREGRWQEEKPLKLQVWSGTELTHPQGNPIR
Text: The ability of the test compounds to inhibit histamine-induced gastric secretion of acid was investigated after intravenous or intraduodenal administration in stomach-perfused rats, according to Gosh and Schild (Br. J. Pharmacol. Chemother. 13, 54, 1958).
The preparation of the animals under general anesthesia (urethane, lg.kg^-1 i.p.) and constant temperature, was achieved by inserting and tying in place polyethylene tubes (PE 50) in the esophagus and in the pyloric-antral region. After the stomach was washed to remove residual of foods, continuous perfusion of the stomach was started with saline, 0.5 ml.min^-1 (37° C.), primed by a Jobling peristaltic pump. After 30 minutes of perfusion adaptation, the stomach perfusate was collected in 30 minute samples, and titrated for acid content, expressed as μEq of NaOH 1N. As control acid output became constant, intravenous perfusion of histamine (1 mg.kg^-1 hr^-1) was started and maintained throughout the experimental period. After the acid secretion had reached the steadily higher level, increasing doses of the test compound were injected intravenously in order to obtain dose-response functions. The ED50 was then calculated by standard procedure.

SMILES	effect on gastric acid secretion (gastric acid secretion)	EC50 (histamine H2 -receptors [1])	ED50 (histamine H2 -receptors [2])
CN/C(=N/CCSCc1nc[nH]c1C)NC#N [CIMETIDINE, cimetidine]	capable of antagonizing gastric acid secretion	–	–
CCCNC=Nc1ccc(-c2c[nH]cn2)cc1Br [8 (c), N-n-Propyl-N'-[2-bromo-4-(imidazol-4-yl)-phenyl]-formamidine]	–	350 nM	0.117 mg/kg
C/N=C(\S)NCCSCc1[nH]cnc1C [metiamide]	capable of antagonizing gastric acid secretion	–	–
C=CCNC=Nc1ccc(-c2c[nH]cn2)cc1C [6 (l), N-Allyl-N'-[4-(imidazol-4-yl)-2-methyl-phenyl]-formamidine]	–	294 nM	0.09 mg/kg
CC(O)CNC=Nc1ccc(-c2c[nH]cn2)cc1 (stereo not drawn) [6 (a), N-(2-hydroxypropyl)-N'-[4-(imidazol-4-yl)-phenyl]-formamidine]	–	1270 nM	0.043 mg/kg
CCOCSCCNC=Nc1ccc(-c2c[nH]cn2)cc1 [8 (b), N-(2-Ethoxymethylthio-ethyl)-N'-[4-(imidazol-4-yl)-phenyl]-formamidine]	–	320 nM	0.083 mg/kg
COc1ccc(CN(CCN(C)C)c2ccccn2)cc1 [mepyramine]	no effect on gastric acid secretion	–	–
CSCCNC=Nc1ccc(-c2c[nH]cn2)cc1 [6 (b), N-(2-Methylthio-ethyl)-N'-[4-(imidazol-4-yl)-phenyl]-formamidine]	–	327 nM	0.022 mg/kg
CNC(=S)NCCCCc1cnc[nH]1 [burimamide]	capable of antagonizing gastric acid secretion	–	–
N#CCCNC=Nc1ccc(-c2c[nH]cn2)cc1 [6 (j), N-(2-Cyano-ethyl)-N'-[4-(imidazol-4-yl)-phenyl]-formamidine]	–	1600 nM	0.046 mg/kg
COCCN=CNc1ccc(-c2c[nH]cn2)cc1 [Example 6, N-(2-Methoxy-ethyl)-N'-[4-(imidazol-4-yl)-phenyl]-formamidine]	–	588 nM	0.05 mg/kg
CCCNC=Nc1ccc(-c2c[nH]cn2)cc1OC [6 (m), N-Propyl-N'-[2-methoxy-4-(imidazol-4-yl)-phenyl]-formamidine]	–	600 nM	0.059 mg/kg
CNC(=NCCSCc1csc(N=C(N)N)n1)NC#N [tiotidine]	capable of antagonizing gastric acid secretion to a greater extent than cimetidine	–	–
CNC(=C[N+](=O)[O-])NCCSCc1ccc(CN(C)C)o1 [ranitidine]	capable of antagonizing gastric acid secretion to a greater extent than cimetidine	–	–
CCCCNC=Nc1ccc(-c2c[nH]cn2)cc1C [6 (k), N-n-Butyl-N'-[4-(imidazol-4-yl)-2-methyl-phenyl]-formamidine]	–	309 nM	0.078 mg/kg
